The text below walks through data of ChEMBL document CHEMBL1201862, “PubChem BioAssay data set” (2004).

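Exposure lasted 48 hours, with cells grown in 96-well plates and compounds tested at five concentrations. GI50 marks 50% less growth.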 Active and inactive are the calls of the source. Rule as the data show it: active = GI50 up to about 1.1 µM and inactive = higher.

Common to all, as to assay: DTP human tumour cell line panel, 48 h
Test [1] deals with A549.
Test [2] concerns HCT-15.
Test [3] concerns HL-60.
Test [4] relates to HOP-92.
The test system of test [5] is HT-29.
For test [6], the system named is Hs-578T.
The subject of test [7] is IGROV-1.
In test [8] the test system is KM12.
The subject of test [9] is NCI-H23.
Test [10] concerns NCI/ADR-RES.
Test [11] deals with SF-295.
The subject of test [12] is SK-MEL-5.
Test [13] deals with SN12C.
In test [14] the test system is SNB-19.
Test [15] has as its system SR.
In test [16] the test system is SW-620.
Test [17] concerns TK-10.
The subject of test [18] is U-251.
Test [19] relates to UACC-62.
Test [20] has as its system UO-31.

Broadly, the GI50 is the concentration at which growth is held to half of that of the control.

Regarding `c1ccc(CSCCC(SCc2ccccc2)SCc2ccccc2)cc1`, the GI50 is > 10 µM (inactive) in [1]; more than 10 µM in test [2]; > 10 µM (inactive) in [3]; 9.66 µM (inactive) in test [4]; > 10 µM (inactive) in test [5]; > 10 µM (inactive) in test [6]. Besides, the GI50 in test [7], in [8], in test [9], in test [10], in [11] and in test [12] was > 10 µM (inactive) in each case. In addition, the GI50 in test [13], in test [14], in test [15], in [16], in test [17] and in [18] was > 10 µM (inactive) throughout. Further, the GI50 in test [19] and in [20] was > 10 µM (inactive) each time.

Turning to `COc1ccc2c(c1OC)OC[C@@H](C1=CC(=O)C=C(O)C1=O)C2`, the GI50 in test [1] is 18.2 µM (inactive); in test [2], 14.7 µM; in test [3], 0.641 µM (active); in test [4] it was 1.89 µM (inactive); in [5] it was 17.7 µM (inactive); in [6], 20.6 µM (inactive). Moreover, the GI50 in test [7] is 11.7 µM (inactive); in test [8], 13 µM (inactive); in [9] it was 16.5 µM (inactive); in test [10] it was 24.5 µM (inactive); in test [11], 16.1 µM (inactive); in test [12], 12.5 µM (inactive). Further, the GI50 was 16.2 µM (inactive) in test [13]; 16 µM (inactive) in [14]; 6.31 µM (inactive) in test [15]; 8.2 µM (inactive) in test [16]; 14.2 µM (inactive) in [17]; 11.7 µM (inactive) in test [18]. The GI50 in [19] was 12.1 µM (inactive); in test [20] it was 12.6 µM (inactive).

With `Cc1cnoc1/N=C1\C=C(O)C(=O)c2ccccc21`, the GI50 is 6.7 µM (inactive) in [1]; 12.2 µM in [2]; 10 µM (inactive) in test [3]; 29.4 µM (inactive) in [4]; 29 µM (inactive) in [5]; 7.6 µM (inactive) in [6]. Further, the GI50 was 22.8 µM (inactive) in test [7]; 11.9 µM (inactive) in test [8]; 4.71 µM (inactive) in test [9]; 8.45 µM (inactive) in [10]; 22.8 µM (inactive) in test [11]; 3.46 µM (inactive) in [12]. The GI50 in [13] is 1.77 µM (inactive); in test [14], 16.3 µM (inactive); in test [15], 33.6 µM (inactive); in test [16] it was 25.8 µM (inactive); in [17], > 100 µM (inactive); in test [18] it was 1.79 µM (inactive). Besides, the GI50 was 4.71 µM (inactive) in test [19] and 10.8 µM (inactive) in test [20].

Take `O=C[C@@H](CO)O[C@H](C=O)n1cnc2c(=O)nc[nH]c21`: the GI50 in test [1] is 849 µM (inactive); in test [2], 73.8 µM; in [3] it was 65.8 µM (inactive); in test [4], 153 µM (inactive); in [5], 486 µM (inactive); in test [6], 664 µM (inactive). The GI50 in [7] is 188 µM (inactive); in test [8] it was 335 µM (inactive); in test [9] it was 243 µM (inactive); in [10], 438 µM (inactive); in [11], 619 µM (inactive); in test [12] it was 378 µM (inactive). In addition, the GI50 in test [13] was 266 µM (inactive); in [14], 638 µM (inactive); in test [15], 181 µM (inactive); in test [16], 126 µM (inactive); in test [17], 596 µM (inactive); in test [18] it was 748 µM (inactive). Further, the GI50 in test [19] was 375 µM (inactive); in test [20] it was 401 µM (inactive).

With `COc1cc(C2SC(=N)Nc3c2c(C)nn3C(=O)c2ccc(Cl)cc2)cc(OC)c1OC` (stereo not drawn), the GI50 in [1] is > 10 µM (inactive); in [2], more than 10 µM; in test [3], > 10 µM (inactive); in test [4] it was > 10 µM (inactive); in test [5], > 10 µM (inactive); in test [6], > 10 µM (inactive). Further, the GI50 in [7], in test [8], in test [9], in test [10], in test [11] and in test [12] was > 10 µM (inactive) throughout. Also, the GI50 in [13], in test [14], in test [15], in [16], in test [17] and in test [18] was > 10 µM (inactive) in each case. Also, in test [19], the GI50 is > 10 µM (inactive).

For the molecule `Cc1cc(=O)oc2cc(OC(=O)Nc3ccc(Cl)c(Cl)c3)ccc12`, the GI50 in test [1] is 24.8 µM (inactive); in test [2], 20.9 µM; in test [3] it was 18.5 µM (inactive); in test [4] it was 13.6 µM (inactive); in test [5], 25.2 µM (inactive); in test [6], 20.7 µM (inactive). The GI50 was 20.2 µM (inactive) in test [7]; 27.1 µM (inactive) in test [8]; 20.7 µM (inactive) in test [9]; 30.5 µM (inactive) in [10]; 20.9 µM (inactive) in test [11]; 16.1 µM (inactive) in test [12]. The GI50 in test [13] was 25.3 µM (inactive); in [14], 25.9 µM (inactive); in [15], 19.7 µM (inactive); in [16], 21.4 µM (inactive); in test [17], 34.9 µM (inactive); in test [18], 20.4 µM (inactive). The GI50 in test [19] was 16 µM (inactive); in test [20] it was 27.4 µM (inactive).

On to `N#CC1(C#N)NC(c2cccs2)C(C#N)(C#N)NC1c1cccs1` (stereo not drawn), for which the GI50 in [1] was 50.8 µM (inactive); in test [2] it was 30.7 µM; in [3] it was 17.1 µM (inactive); in [4] it was 23 µM (inactive); in test [5], 47.3 µM (inactive); in test [6], 43.2 µM (inactive). Besides, the GI50 in [7] is 30.3 µM (inactive); in test [8], 39.9 µM (inactive); in test [9], 55.1 µM (inactive); in test [10], 77.3 µM (inactive); in [11] it was 52.5 µM (inactive); in test [12], 26.7 µM (inactive). Further, the GI50 is 43.2 µM (inactive) in [13]; 55.2 µM (inactive) in test [14]; 28.2 µM (inactive) in test [15]; 31.1 µM (inactive) in test [16]; > 100 µM (inactive) in [17]; 22.8 µM (inactive) in [18]. Also, the GI50 is 20.6 µM (inactive) in test [19] and 42.6 µM (inactive) in test [20].

Take `O=c1oc2cc(O)ccc2cc1-c1nc2ccccc2o1`: the GI50 in test [1] is 29.5 µM (inactive); in test [2], 34.4 µM; in test [3], 23.8 µM (inactive); in test [4], 26.7 µM (inactive); in test [5], 33.7 µM (inactive); in test [6] it was 33.4 µM (inactive). Besides, the GI50 in [7] was 29.1 µM (inactive); in test [8] it was 25.8 µM (inactive); in test [9], 32.6 µM (inactive); in test [10], 36.4 µM (inactive); in test [11], 44.9 µM (inactive); in test [12], 19.5 µM (inactive). Further, the GI50 in test [13] is 49.7 µM (inactive); in [14], 29.1 µM (inactive); in test [15], 30.9 µM (inactive); in test [16], 40.3 µM (inactive); in test [17], 37 µM (inactive); in test [18] it was 28.7 µM (inactive). Also, the GI50 in [19] was 20 µM (inactive); in test [20], 26.9 µM (inactive).

As to `CCc1c(Cc2cc(C)cc(C)c2)n2c(nc1=O)SCC2CBr` (stereo not drawn), the GI50 is > 50 µM (inactive) in test [1]; more than 50 µM in test [2]; > 50 µM (inactive) in test [3]; 9.93 µM (inactive) in test [4]; > 50 µM (inactive) in test [5]; > 50 µM (inactive) in test [6]. For the same molecule, the GI50 is 24.2 µM (inactive) in [7]; > 50 µM (inactive) in test [8]; > 50 µM (inactive) in [9]; > 50 µM (inactive) in [10]; > 50 µM (inactive) in [12]; > 50 µM (inactive) in test [13]. Also, the GI50 in test [14] is 23.1 µM (inactive); in test [15] it was > 50 µM (inactive); in test [16], > 50 µM (inactive); in [17], 34 µM (inactive); in test [18], 24.8 µM (inactive); in [19], > 50 µM (inactive). Besides, the GI50 in test [20] was > 50 µM (inactive).

On to `NC(=O)C1=C(c2ccccc2)c2ccccc2C1=O`, for which the GI50 is 18.6 µM (inactive) in test [1]; 12.3 µM in test [2]; 3.57 µM (inactive) in [3]; 17.7 µM (inactive) in [4]; 16.6 µM (inactive) in test [5]; 24.8 µM (inactive) in test [6]. For the same molecule, the GI50 in test [7] is 16.1 µM (inactive); in test [8], 16.1 µM (inactive); in test [9] it was 18.1 µM (inactive); in [10] it was 17.7 µM (inactive); in test [11], 23 µM (inactive); in test [12], 16.3 µM (inactive). Moreover, the GI50 was 18.5 µM (inactive) in test [13]; 17.7 µM (inactive) in test [14]; 4.78 µM (inactive) in [15]; 25.1 µM (inactive) in test [16]; 18.1 µM (inactive) in test [17]; 18.3 µM (inactive) in [18]. Also, the GI50 in test [19] was 17.4 µM (inactive); in [20], 18.8 µM (inactive).
